Reference: publication PMC13114161 (Antibiotics, 2026)
Like-named read-outs stand apart in the source and are kept apart here.

Key:
[1] = test system: P. aeruginosa CDC AR-0232, AR-0248, AR-0249; format: cell-based, Pseudomonas aeruginosa
Procedure: (§1) Frequency-of-resistance studies were carried out as described previously.

[2] = Maximum tolerated dose; details: female, CD-1, mouse, iv
Procedure: Thus, the safety and tolerability of TXA11114 was determined to find an optimum dosing capability. The maximum tolerated dose (MTD) of TXA11114 was assessed in female mice (CD-1, 6–8 weeks old) at the University of North Texas Health Science Center (UNTHSC). TXA11114 was administered IV to groups of three female mice. Mice were administered TXA11114 in the range 30–240 mg/kg (IV bolus). […] As doses are tolerated (not resulting in effects such as mortality, convulsions, or other severe morbidity), they are increased. Survival and general observations as to the tolerability of the administered dose started immediately and continued for a period of 48 h after each dose was recorded.

[3] = Plasma stability; format: in vitro ADME, human
Procedure: Plasma stability was assessed by incubating the compound in plasma at 37 °C and monitoring parent compound disappearance over time by LC-MS/MS. Half-life values were calculated assuming first-order kinetics.

[4] = Aqueous solubility; format: physicochemical
Procedure: The aqueous solubility of TXA11114 was evaluated in system solution (SS) at pH 7.4. Known concentrations of TXA11114, prepared as DMSO stock solutions, were spiked into SS and incubated for 6 h at room temperature with constant shaking (250 rpm). Caffeine and diethylstilbestrol (DES) were used as positive controls. […] Aliquots (500 µL) of diluted test and control compounds were dispensed into 96-deep-well plates in triplicate, sealed, and incubated as described above. Following incubation, 300 µL samples were withdrawn and filtered using 0.22 µm filter plates. Optical density at λ_max was measured using a UV spectrophotometer.

[5] = Plasma protein binding (equilibrium dialysis); format: in vitro ADME
Procedure: Plasma protein binding was determined experimentally using equilibrium dialysis, with compound concentrations in plasma and buffer quantified by LC-MS/MS.

[6] = test system: multidrug-resistant P. aeruginosa clinical isolates from Walter Reed Army Hospital; test: Levofloxacin MIC potentiation, WRAIR MRSN isolates; format: cell-based, Pseudomonas aeruginosa
Procedure: (§2) MIC assays for potentiation of antimicrobial activity against P. aeruginosa were performed as described previously.

[7] = test system: P. aeruginosa; test: MIC potentiation of antimicrobial agents by EPIs; format: cell-based, Pseudomonas aeruginosa; details: 1/16 MIC
Procedure: In contrast, the activities of gentamicin and imipenem were unchanged in the presence of TXA11114 under the conditions tested. Although gentamicin can be transported by the MexXY efflux system, the absence of potentiation in this assay is not sufficient to draw conclusions regarding MexXY inhibition or overall efflux specificity.
as §2

[8] = test system: P. aeruginosa ATCC 27853; format: cell-based, Pseudomonas aeruginosa; details: for FoR, resistance to TXA11114 alone: ATCC 27853
Procedure: OmpH is a homologous periplasmic chaperone that binds newly synthesized, unfolded outer membrane proteins (OMPs) and delivers them to the outer membrane for assembly by the BAM machinery, thereby preventing aggregation and facilitating proper membrane insertion.
as §1

[9] = test system: P. aeruginosa ATCC 27853 ompH mutants EPIR32, EPIR36, EPIR38; test: microbe, parasite or virus in culture; format: cell-based, Pseudomonas aeruginosa
Procedure: as §2

[10] = test system: P. aeruginosa ATCC 27853; test: Neutropenic murine lung infection model; format: in vivo, CD-1 mice
Procedure: For the lung infection model, mice were anesthetized by IP injection of 0.15 mL of a ketamine (40 mg/kg) + xylazine (6 mg/kg) mixture and inoculated intranasally (IN) with 0.05 mL of a 4 × 10^8 CFU/mL bacterial suspension applied dropwise to the external nares. Two hours post-infection, mice received test articles IV (EPIs) or SC (levofloxacin). At 2 h or 24 h post-infection, mice were euthanized by CO2 asphyxiation, and lungs were aseptically removed, placed in 2 mL sterile PBS, and homogenized using the same procedure described above. Homogenates were serially diluted and plated (8 µL spots) onto BHI-charcoal and citrate agar, incubated overnight at 37 °C, and colonies were counted the following day.

SMILES: NCC(F)C[C@@H](N)CNC(=O)c1cc2ccc(-c3ccc(F)cc3)cc2[nH]1 (stereo partly drawn) [TXA11114, N-((2R)-2,5-diamino-4-fluoropentyl)-6-(4-fluorophenyl)-1H-indole-2-carboxamide]
- Frequency of Resistance [1]: <1.00 × 10^−10
- Frequency of Resistance ([1]; CDC AR-0248, levofloxacin 4× MIC (64 μg/mL) + TXA11114 […]): <1.47 × 10^−10
- Frequency of Resistance ([1]; CDC AR-0249, levofloxacin 4× MIC (256 μg/mL) + TXA11114 […]): <8.77 × 10^−11
- MTD at 48 h ([2]; in vivo, Maximum tolerated dose (MTD), mice, IV bolus for TXA11114): < 90 mg/kg
- MTD at 48 h [2]: > 60 mg/kg
- half-life ([3]; across four species (human, dog, rat, and mouse), read-out: Plasma stability half-life): > 2 h
- half-life ([3]; human, read-out: Plasma stability t1/2): > 2 h
- Aqueous solubility ([4]; pH 7.4): 145.9 ± 6.1 µM
- solubility at 6 h ([4]; system solution (SS), pH 7.4, aqueous buffer, kinetic from dmso stock): > 145 µM
- fraction unbound ([5]; dog): 0.011
- fraction unbound ([5]; human, across the four species tested, read-out: Plasma protein binding): 0.01 to 0.02
- fraction unbound ([5]; human, read-out: Protein Binding): 0.01
- fraction unbound ([5]; mouse): 0.011
- fraction unbound ([5]; rat): 0.015
- Levofloxacin MIC reductions across panel ([6]; 20 MRSN isolates, + TXA11114 […]): 2- to 32 fold
- Share of isolates shifted to levofloxacin susceptibility ([6]; 20 highly MDR MRSN isolates, + TXA11114): 65%
- Levofloxacin MIC fold difference, +TXA11114 ([6]; MRSN #994): 8 fold
- Levofloxacin MIC, +TXA11114 ([6]; MRSN #994): 2 µg/mL
- Levofloxacin MIC, +TXA11114 ([6]; MRSN #1344): 0.25 µg/mL
- Levofloxacin MIC fold difference, +TXA11114 ([6]; MRSN #3587): 8 fold
- Levofloxacin MIC, +TXA11114 ([6]; MRSN #3587): 1 µg/mL
- Levofloxacin MIC fold difference, +TXA11114 ([6]; MRSN #3705): 32 fold
- Levofloxacin MIC, +TXA11114 ([6]; MRSN #3705): 0.25 µg/mL
- Levofloxacin MIC fold difference, +TXA11114 ([6]; MRSN #5498): 8 fold
- Levofloxacin MIC, +TXA11114 ([6]; MRSN #5498): 4 µg/mL
- Levofloxacin MIC fold difference, +TXA11114 ([6]; MRSN #5519): 16 fold
- Levofloxacin MIC, +TXA11114 ([6]; MRSN #5519): 4 µg/mL
- Levofloxacin MIC fold difference, +TXA11114 ([6]; MRSN #5539): 2 fold
- Levofloxacin MIC, +TXA11114 ([6]; MRSN #5539): 8 µg/mL
- Levofloxacin MIC fold difference, +TXA11114 ([6]; MRSN #6220): 16 fold
- Levofloxacin MIC, +TXA11114 ([6]; MRSN #6220): 8 µg/mL
- Levofloxacin MIC fold difference, +TXA11114 ([6]; MRSN #6241): 4 fold
- Levofloxacin MIC, +TXA11114 ([6]; MRSN #6241): 2 µg/mL
- Levofloxacin MIC fold difference, +TXA11114 ([6]; MRSN #6678): 8 fold
- Levofloxacin MIC, +TXA11114 ([6]; MRSN #6678): 4 µg/mL
- Levofloxacin MIC fold difference, +TXA11114 ([6]; MRSN # 6695): 16 fold
- Levofloxacin MIC, +TXA11114 ([6]; MRSN # 6695): 0.5 µg/mL
- Levofloxacin MIC fold difference, +TXA11114 ([6]; MRSN #8130): 8 fold
- Levofloxacin MIC, +TXA11114 ([6]; MRSN #8130): 2 µg/mL
- Levofloxacin MIC fold difference, +TXA11114 ([6]; MRSN #8139): 8 fold
- Levofloxacin MIC, +TXA11114 ([6]; MRSN #8139): 1 µg/mL
- Levofloxacin MIC fold difference, +TXA11114 ([6]; MRSN #8912): 8 fold
- Levofloxacin MIC, +TXA11114 ([6]; MRSN #8912): 2 µg/mL
- Levofloxacin MIC fold difference, +TXA11114 ([6]; MRSN #8914): 8 fold
- Levofloxacin MIC, +TXA11114 ([6]; MRSN #8914): 2 µg/mL
- Levofloxacin MIC fold difference, +TXA11114 ([6]; MRSN #8915): 2 fold
- Levofloxacin MIC, +TXA11114 ([6]; MRSN #8915): 64 µg/mL
- Levofloxacin MIC fold difference, +TXA11114 ([6]; MRSN #14981): 16 fold
- Levofloxacin MIC, +TXA11114 ([6]; MRSN #14981): 1 µg/mL
- Levofloxacin MIC fold difference, +TXA11114 ([6]; MRSN #15566): 32 fold
- Levofloxacin MIC, +TXA11114 ([6]; MRSN #15566): 0.25 µg/mL
- Levofloxacin MIC fold difference, +TXA11114 ([6]; MRSN #16344): 16 fold
- Levofloxacin MIC, +TXA11114 ([6]; MRSN #16344): 0.5 µg/mL
- Levofloxacin MIC fold difference, +TXA11114 ([6]; MRSN #369569): 8 fold
- Levofloxacin MIC, +TXA11114 ([6]; MRSN #369569): 4 µg/mL
- Lowest effective concentration for potentiation [7]: 6.25 µg/mL
- Frequency of Resistance [8]: <1.04 × 10^−10
- FoR, resistance to TXA11114 alone ([8]; 1X-MIC (100 µg/mL)): 1.8 × 10^−6
- FoR, resistance to TXA11114 alone ([8]; 4X-MIC (400 µg/mL)): <3.09 × 10^−9
- Fold MIC reduction [LVX/EPI‐LVX] ([9]; EPI36): 1 fold
- LVX MIC (+ EPI […]) ([9]; EPI36): 0.125
- Fold MIC reduction [LVX/EPI‐LVX] ([9]; EPIR32): 1 fold
- LVX MIC (+ EPI […]) ([9]; EPIR32): 0.25
- MIC ([9]; EPIR36, listed as TXA): 200 µg/mL
- MIC ([9]; Pseudomonas aeruginosa, ATCC27853, EPIR32): > 200 µg/mL
- MIC ([9]; Pseudomonas aeruginosa, ATCC27853, EPIR36): > 200 µg/mL
- MIC ([9]; Pseudomonas aeruginosa, ATCC27853, EPIR38): 200 µg/mL
- Effect of EPI alone on bacterial burden, lung ([10]; 30 mg/kg, IV, QID): did not reduce bacterial burden
- Mean Log10 CFU (lung) ([10]; +24 hr, TXA11114 30 mg/kg IV QID alone): 8.75 log10 CFU
- Mean Log10 CFU Change vs +2 hr Control, Δlog10 (treatment-baseline), lung ([10]; TXA11114 30 mg/kg IV QID alone): 4.16 log10 CFU
